According to patent US20250195521A1 (Revolution Medicines, Inc., priority 2020, published 2025):
Read-outs that look alike come from different tables or passages of the source.

Tests used:
[1] = system: AsPC-1 (K-Ras G12D); experiment: Potency assay: pERK; type: cell-based, human; conditions: Homo sapiens
Outline: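 pERK decrease measured after 4 h compound treatment at 37 °C (10 three-fold dilutions, duplicate wells), by either fixed-cell In-Cell Western with DRAQ5 counterstain or AlphaLISA on lysates. Signal fitted against log concentration with a four-parameter model to give IC50.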

[2] = system: NCI-H358 (K-Ras G12C); experiment: CellTiter-Glo cell viability assay, H358; type: cell-based, human; conditions: Homo sapiens, NCI-H358, 120 h, read-out: H358 Cell Viability IC50, K-Ras G12C, 5-day treatment
Outline: (§1)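 Luminescent viability readout on day 5 after direct compound addition to plated cells; plates sat ~30 min at room temperature before reading. Values expressed as percent of mean DMSO signal, curves fit with a four-parameter logistic model.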

[3] = biological target: KRAS G13C (Homo sapiens (Human), UniProt P01116+P62937, G13C); experiment: Ras-Raf disruption/FRET/MOA assay, KRAS G13C; type: biochemical
Excerpt: (§2) Disruption of B-Raf Ras-Binding Domain (BRAF^RBD) Interaction with K-Ras by Compounds of the Invention (Also Called a FRET Assay or an MOA Assay)
(§3) Note—The following protocol describes a procedure for monitoring disruption of K-Ras G12C (GMP-PNP) binding to BRAF^RBD by a compound of the invention. This protocol may also be executed substituting other Ras proteins or nucleotides, such as K-Ras G12D and K-Ras G13D.
(§4) The purpose of this biochemical assay was to measure the ability of test compounds to facilitate ternary complex formation between a nucleotide-loaded K-Ras isoform and Cyclophilin A; the resulting ternary complex disrupts binding to a BRAF^RBD construct, inhibiting K-Ras signaling through a RAF effector. Data is reported as IC50 values.
(§5) In assay buffer containing 25 mM HEPES pH 7.3, 0.002% Tween20, 0.1% BSA, 100 mM NaCl and 5 mM MgCl2, tagless Cyclophilin A, His6-K-Ras-GMPPNP, and GST-BRAF^RBD were combined in a 384-well assay plate at final concentrations of 25 μM, 12.5 nM, and 50 nM, respectively. Compound was present in plate wells as a 10-point 3-fold dilution series starting at a final concentration of 30 μM. After incubation at 25° C. for 3 hours, a mixture of anti-His Eu—W1024 and anti-GST allophycocyanin was then added to assay sample wells at final concentrations of 10 nM and 50 nM, respectively, and the reaction incubated for an additional 1.5 hours. […] Compounds that facilitate disruption of a K-Ras: RAF complex were identified as those eliciting a decrease in the TR-FRET ratio relative to DMSO control wells.

[4] = biological target: NRAS G12C (Homo sapiens (Human), UniProt P01111+P62937, G12C); experiment: Ras-Raf disruption/FRET/MOA assay, NRAS G12C; type: biochemical
Excerpt: as §2, §3, §4, §5

[5] = biological target: KRAS G12V (Homo sapiens (Human), UniProt P01116+P62937, G12V); experiment: Ras-Raf disruption/FRET/MOA assay, KRAS G12V; type: biochemical
Excerpt: as §2, §3, §4, §5

[6] = biological target: KRAS WT (Homo sapiens (Human), UniProt P01116+P62937); experiment: Ras-Raf disruption/FRET/MOA assay, KRAS WT; type: biochemical
Excerpt: as §2, §3, §4, §5

[7] = biological target: KRAS G13D (Homo sapiens (Human), UniProt P01116+P62937, G13D); experiment: Ras-Raf disruption/FRET/MOA assay, KRAS G13D; type: biochemical
Excerpt: as §2, §3, §4, §5

[8] = biological target: KRAS G12S (Homo sapiens (Human), UniProt P01116+P62937, G12S); experiment: Ras-Raf disruption/FRET/MOA assay, KRAS G12S; type: biochemical
Excerpt: as §2, §3, §4, §5

[9] = biological target: KRAS G12D (Homo sapiens (Human), UniProt P01116+P62937, G12D); experiment: Ras-Raf disruption/FRET/MOA assay, KRAS G12D; type: biochemical
Excerpt: as §2, §3, §4, §5

[10] = biological target: KRAS G12C (Homo sapiens (Human), UniProt P01116+P62937, G12C); experiment: Ras-Raf disruption/FRET/MOA assay, KRAS G12C; type: biochemical
Excerpt: as §2, §3, §4, §5

[11] = system: AsPC-1 (K-Ras G12D); experiment: CellTiter-Glo cell viability assay, AsPC-1; type: cell-based, human; conditions: Homo sapiens, ASPC1, 120 h, read-out: AsPC-1 Cell Viability IC50
Outline: as §1

[12] = read-out: NRAS G12C FRET data IC50
[13] = read-out: KRAS G12C FRET data IC50

Sequence of KRAS G12D (P01116 other isoform, or with tags, fused parts or gaps G12D): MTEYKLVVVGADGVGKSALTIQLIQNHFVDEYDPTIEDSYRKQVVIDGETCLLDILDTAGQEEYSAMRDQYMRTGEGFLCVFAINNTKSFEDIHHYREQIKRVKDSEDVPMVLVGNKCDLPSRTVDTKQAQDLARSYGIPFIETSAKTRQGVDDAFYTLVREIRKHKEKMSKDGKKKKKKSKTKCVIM
Sequence of KRAS G12D (P62937 whole entry): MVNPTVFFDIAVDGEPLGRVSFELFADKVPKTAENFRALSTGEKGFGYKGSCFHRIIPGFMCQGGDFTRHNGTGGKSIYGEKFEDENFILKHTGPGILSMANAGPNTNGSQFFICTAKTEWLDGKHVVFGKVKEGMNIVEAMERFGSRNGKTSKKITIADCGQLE
Sequence of KRAS G13D (P01116 other isoform, or with tags, fused parts or gaps G13D): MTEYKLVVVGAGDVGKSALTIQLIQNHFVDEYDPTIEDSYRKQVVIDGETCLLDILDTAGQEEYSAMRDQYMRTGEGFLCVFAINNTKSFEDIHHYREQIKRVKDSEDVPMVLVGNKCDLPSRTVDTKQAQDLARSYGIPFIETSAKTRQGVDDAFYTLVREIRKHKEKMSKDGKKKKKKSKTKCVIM
Sequence of KRAS G13D (P62937 whole entry): as the sequence (P62937 whole entry) above
Sequence of KRAS G13C (P01116 other isoform, or with tags, fused parts or gaps G13C): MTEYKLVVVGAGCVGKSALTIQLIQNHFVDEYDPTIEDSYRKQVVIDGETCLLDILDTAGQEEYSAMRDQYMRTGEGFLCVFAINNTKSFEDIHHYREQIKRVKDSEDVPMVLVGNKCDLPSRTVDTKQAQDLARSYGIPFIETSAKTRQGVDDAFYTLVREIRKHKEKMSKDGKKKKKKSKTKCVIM
Sequence of KRAS G13C (P62937 whole entry, the tested form may be a part): as the sequence (P62937 whole entry) above
Sequence of KRAS WT (P01116 other isoform, or with tags, fused parts or gaps): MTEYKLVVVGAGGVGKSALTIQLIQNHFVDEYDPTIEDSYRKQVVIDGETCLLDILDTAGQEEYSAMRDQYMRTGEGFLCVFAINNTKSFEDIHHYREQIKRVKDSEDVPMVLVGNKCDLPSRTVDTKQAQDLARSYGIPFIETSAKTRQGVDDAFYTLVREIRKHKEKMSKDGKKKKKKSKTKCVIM
Sequence of KRAS WT (P62937 whole entry): as the sequence (P62937 whole entry) above
Sequence of KRAS G12V (P01116 other isoform, or with tags, fused parts or gaps G12V): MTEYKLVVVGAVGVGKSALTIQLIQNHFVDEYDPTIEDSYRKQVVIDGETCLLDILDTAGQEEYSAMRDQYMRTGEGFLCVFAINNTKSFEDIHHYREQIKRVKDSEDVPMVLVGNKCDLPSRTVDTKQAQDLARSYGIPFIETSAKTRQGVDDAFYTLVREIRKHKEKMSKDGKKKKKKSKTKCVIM
Sequence of KRAS G12V (P62937 whole entry): as the sequence (P62937 whole entry) above
Sequence of KRAS G12S (P01116 other isoform, or with tags, fused parts or gaps G12S): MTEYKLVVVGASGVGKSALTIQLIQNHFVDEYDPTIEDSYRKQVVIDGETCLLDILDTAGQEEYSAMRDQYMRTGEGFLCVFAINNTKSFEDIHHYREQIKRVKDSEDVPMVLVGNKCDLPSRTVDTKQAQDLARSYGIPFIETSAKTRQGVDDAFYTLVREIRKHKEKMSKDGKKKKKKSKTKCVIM
Sequence of KRAS G12S (P62937 whole entry): as the sequence (P62937 whole entry) above
Sequence of NRAS G12C (P01111 whole entry G12C): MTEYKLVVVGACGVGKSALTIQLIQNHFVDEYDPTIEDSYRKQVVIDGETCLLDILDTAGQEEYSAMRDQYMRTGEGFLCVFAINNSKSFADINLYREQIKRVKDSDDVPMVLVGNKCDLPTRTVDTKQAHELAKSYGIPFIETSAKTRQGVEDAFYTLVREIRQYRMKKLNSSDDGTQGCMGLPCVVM
Sequence of NRAS G12C (P62937 whole entry): as the sequence (P62937 whole entry) above
Sequence of KRAS G12C (P01116-2 other isoform, or with tags, fused parts or gaps G12C): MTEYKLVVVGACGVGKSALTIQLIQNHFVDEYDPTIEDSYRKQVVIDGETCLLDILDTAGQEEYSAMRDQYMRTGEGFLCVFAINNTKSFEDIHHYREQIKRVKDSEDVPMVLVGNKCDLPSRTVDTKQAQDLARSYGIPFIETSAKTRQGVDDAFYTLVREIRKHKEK
Sequence of KRAS G12C (P62937 whole entry): as the sequence (P62937 whole entry) above

Structure (SMILES)	EC50 ([1]; ASPC1, read-out: pERK EC50) [nM]	IC50 [3] [nM]	IC50 [4] [nM]	IC50 [5] [nM]	IC50 [6] [nM]	IC50 [7] [nM]	IC50 [8] [nM]	IC50 [9] [nM]	IC50 [10] [nM]	IC50 [11] [nM]	IC50 ([3]; read-out: KRAS G13C FRET IC50) [nM]	IC50 [4, 12] [nM]	IC50 ([5]; read-out: KRAS G12V FRET IC50) [nM]	IC50 ([6]; read-out: KRAS WT FRET IC50) [nM]	IC50 ([7]; read-out: KRAS G13D FRET IC50) [nM]	IC50 ([8]; read-out: KRAS G12S FRET IC50) [nM]	IC50 ([9]; read-out: KRAS G12D FRET IC50) [nM]	IC50 [10, 13] [nM]	other results
CCn1c(-c2cnccc2COC)c2c3cc(ccc31)-c1cc(O)cc(c1)C[C@H](NC(=O)[C@H](C(C)C)N(C)C(=O)CN(C)C(=O)[C@@H]1N[C@H]1c1ccc(OC)cc1)C(=O)N1CCC[C@H](N1)C(=O)OCC(C)(C)C2 [Example 96]	< 5000	10 to 100	10 to 100	10 to 100	10 to 100	100 to 1000	10 to 100	100 to 1000	10 to 100	1000 to 10000									IC50 [2]: 1000 to 10000 nM
CCn1c(-c2cnccc2COC)c2c3cc(ccc31)-c1cc(O)cc(c1)C[C@H](NC(=O)[C@H](C(C)C)N(C)C(=O)CN(C)C(=O)[C@H]1N[C@@H]1c1ccc(OC)cc1)C(=O)N1CCC[C@H](N1)C(=O)OCC(C)(C)C2 [Example 97]	< 5000	10 to 100	10 to 100	10 to 100	10 to 100	100 to 1000	10 to 100	100 to 1000	10 to 100	1000 to 10000									
CCn1c(-c2cnccc2COC)c2c3cc(ccc31)-c1cc(O)cc(c1)C[C@H](NC(=O)[C@H](C(C)C)N(C)C(=O)CN(C)C(=O)[C@H]1N[C@H]1C1CC1)C(=O)N1CCC[C@H](N1)C(=O)OCC(C)(C)C2 [Example 104]	< 5000	10 to 100	10 to 100	100 to 1000	100 to 1000	100 to 1000	10 to 100	100 to 1000	10 to 100	1000 to 10000									
CCn1c(-c2cnccc2COC)c2c3cc(ccc31)-c1cc(O)cc(c1)C[C@H](NC(=O)[C@H](C(C)C)N(C)C(=O)CN(C)C(=O)[C@@H]1N[C@@H]1C)C(=O)N1CCC[C@H](N1)C(=O)OCC(C)(C)C2 [Example 105]	< 5000	10 to 100	10 to 100	100 to 1000	10 to 100	100 to 1000	10 to 100	100 to 1000	10 to 100	1000 to 10000									
CCn1c(-c2cccnc2[C@H](C)OC)c2c3cc(ccc31)-c1cc(O)cc(c1)C[C@H](NC(=O)[C@H](C(C)C)N1CCC3(CC(C(=O)[C@H]4CN4)C3)C1=O)C(=O)N1CCC[C@H](N1)C(=O)OCC(C)(C)C2 (some centres unmarked) [Example 115]											10 to 100	< 10	100 to 1000	10 to 100	10 to 100	100 to 1000	100 to 1000	< 10	IC50 ([11]; K-Ras G12D, 5-day treatment): > 10000 nM
CCn1c(-c2cccnc2[C@H](C)OC)c2c3cc(ccc31)-c1cccc(c1)C[C@H](NC(=O)[C@H](C(C)C)N1CC[C@@H](CN=C=NCCOC)C1)C(=O)N1CCC[C@H](N1)C(=O)OCC(C)(C)C2 [Example 121]											100 to 1000	100 to 1000	1000 to 10000	100 to 1000	> 10000	1000 to 10000	1000 to 10000	100 to 1000	
CCn1c(-c2cccnc2[C@H](C)OC)c2c3cc(ccc31)-c1cc(O)cc(c1)C[C@H](NC(=O)[C@H](C(C)C)N1CC[C@@]3(CCC(C(=O)[C@@H]4N[C@@H]4C4CC4)C3)C1=O)C(=O)N1CCC[C@H](N1)C(=O)OCC(C)(C)C2 (some centres unmarked) [Example 128]											10 to 100	10 to 100	100 to 1000	100 to 1000	100 to 1000	100 to 1000	100 to 1000	10 to 100	EC50 ([1]; ASPC1, AsPC-1 KRAS G12D, read-out: pERK EC50): < 5000 nM; IC50 ([11]; K-Ras G12D, 5-day treatment): 1000 to 10000 nM
